According to patent US7494991B2, “Rifamycin analogs and uses thereof” (ActivBiotics Pharma, LLC, priority 2003, dated 2009):
≈ marks a conversion by molar mass, not a printed value.

Assays:
H. flu = assay: MIC assay, H. flu; assay type: cell-based, H. influenza
S. pneumo. = assay: MIC assay, S. pneumo.; assay type: cell-based, S. pneumoniae
S. aureus = assay: MIC assay, S. aureus; assay type: cell-based
E. coli = assay: MIC assay, E. coli; assay type: cell-based
E. faecalis = assay: MIC assay, E. faecalis; assay type: cell-based
C. trachomatis = assay: MIC assay, C. trachomatis; assay type: cell-based

Row | Structure (SMILES) | MIC (μg/mL) H. flu (H. flu) [µg/mL] | MIC (μg/mL) S. pneumo. (S. pneumo.) [µg/mL] | MIC (μg/mL) S. aureus (S. aureus) [µg/mL] | MIC (μg/mL) E. coli (E. coli) [µg/mL] | MIC (μg/mL) E. faecalis (E. faecalis) [µg/mL] | MIC (μg/mL) C. trachomatis (C. trachomatis) [µg/mL]
1 | CO[C@H]1/C=C/O[C@@]2(C)Oc3c(C)c(O)c4c(=O)c(c5oc6c7c(cc(O)c6nc-5c4c3C2=O)N(C)CCCN7C)NC(=O)/C(C)=C\C=C\[C@H](C)[C@H](O)[C@@H](C)[C@@H](O)[C@@H](C)[C@H](O)[C@@H]1C [Compound 4] | 2 (≈ 2330 nM) | 0.00012 (≈ 0.14 nM) | 0.12 (≈ 140 nM) | >8 | 1 (≈ 1170 nM) | 0.001 (≈ 1.17 nM)
2 | CO[C@H]1/C=C/O[C@@]2(C)Oc3c(C)c(O)c4c(=O)c(c5oc6c7c(cc(O)c6nc-5c4c3C2=O)N(C)CCCN7C)NC(=O)/C(C)=C\C=C\[C@H](C)[C@H](O)[C@@H](C)[C@@H](O)[C@@H](C)[C@H](OC(C)=O)[C@@H]1C [Compound 3] | 2 (≈ 2220 nM) | 0.008 (≈ 8.9 nM) | 0.06 (≈ 66.7 nM) | >8 | 4 (≈ 4450 nM) | 6.4e-05 (≈ 0.0712 nM)
3 | CO[C@H]1/C=C/O[C@@]2(C)Oc3c(C)c(O)c4c(=O)c(c5oc6c7c(cc(O)c6nc-5c4c3C2=O)N(C)CCN7C)NC(=O)/C(C)=C\C=C\[C@H](C)[C@H](O)[C@@H](C)[C@@H](O)[C@@H](C)[C@H](OC(C)=O)[C@@H]1C [Compound 1] | 1 (≈ 1130 nM) | 0.00012 (≈ 0.136 nM) | 0.008 (≈ 9.04 nM) | 8 (≈ 9040 nM) | 1 (≈ 1130 nM) | 6.4e-05 (≈ 0.0723 nM)
4 | CO[C@H]1/C=C/O[C@@]2(C)Oc3c(C)c(O)c4c(=O)c(c5oc6c7c(cc(O)c6nc-5c4c3C2=O)N(C)CCN7C)NC(=O)/C(C)=C\C=C\[C@H](C)[C@H](O)[C@@H](C)[C@@H](O)[C@@H](C)[C@H](O)[C@@H]1C [Compound 2] | 2 (≈ 2370 nM) | 0.06 (≈ 71.2 nM) | 0.5 (≈ 593 nM) | 8 (≈ 9490 nM) | 1 (≈ 1190 nM) | 0.001 (≈ 1.19 nM)
